Key:
[1] = target: T1, recombinant human FAK1 (Homo sapiens, UniProt Q05397); experiment: FAK1 HTRF assay; assay type: biochemical
T1 construct: fused on or other part: N-terminal 6xHis tag
Procedure, shortened: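 His-tagged human FAK1 (residues 692–end, Sf9-expressed), 10 nM final, with 0.5 μM biotinylated gastrin-precursor Tyr87 peptide and a 10 μM final reagent in pH 7.4 buffer, 45 min at rt. Detection used Eu anti-pTyr antibody plus SA-APC (665/620 nm). Compounds top concentration 10 μM; IC50 from % inhibition.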

[2] = target: T2, Phospho Src(Y416) (Homo sapiens, UniProt P12931); experiment: Phospho Src(Y416) Sandwich ELISA; assay type: cell-based; conditions: Panc1; read-out: pSrc EC50 (μM) Panc1
T2 construct: endogenous in cells; host or cells: Panc1
T2 sequence (P12931 whole entry): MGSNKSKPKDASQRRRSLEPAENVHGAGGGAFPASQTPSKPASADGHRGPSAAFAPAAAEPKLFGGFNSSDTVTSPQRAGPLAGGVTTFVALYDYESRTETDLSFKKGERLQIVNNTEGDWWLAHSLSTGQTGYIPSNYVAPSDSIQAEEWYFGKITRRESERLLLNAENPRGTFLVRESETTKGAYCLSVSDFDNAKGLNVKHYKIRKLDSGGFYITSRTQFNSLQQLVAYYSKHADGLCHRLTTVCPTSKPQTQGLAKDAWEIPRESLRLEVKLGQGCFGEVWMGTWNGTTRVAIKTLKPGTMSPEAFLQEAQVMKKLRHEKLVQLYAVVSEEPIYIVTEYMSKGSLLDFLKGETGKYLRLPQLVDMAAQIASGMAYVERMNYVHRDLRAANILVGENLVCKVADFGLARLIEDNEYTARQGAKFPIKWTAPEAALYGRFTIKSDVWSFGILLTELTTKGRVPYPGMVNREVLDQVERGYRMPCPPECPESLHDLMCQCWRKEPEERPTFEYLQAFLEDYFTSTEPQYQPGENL
Experimental: E. Phospho Src(Y416) Sandwich ELISA
Phospho Src(Y416) Sandwich ELISA kit was obtained from Cell Signaling Tech.
(i) Reagent Preparation • 1. All microwell strips were brought to rt before use. • 2. 1× Wash Buffer was prepared by diluting 20× Wash Buffer (included in each PathScan® Sandwich ELISA Kit) in MilliQ® water or equivalently purified water. • 3. 1× Cell Lysis Buffer from CST #9803: 20 mM Tris (pH 7.5), 150 mM NaCl, 1 mM ethylene diamine tetraacetate (EDTA), 1 mM ethylene glycol-bis(2-aminoethyl)-N,N,N′,N′-tetraacetic acid (EGTA), 1% Triton™ X-100, 2.5 mM sodium pyrophosphate, 1 mM b-glycerophosphate, 1 mM Na3VO4, 1 μg/mL leupeptin. This buffer was stored at 4° C. for short-term use (1-2 weeks).
(ii) Preparing Cell Lysates • 1. The media was aspirated. The cells were treated by adding fresh media containing inhibitor for 1 h. The compound of Example 214 was used as reference. • 2. The cells were harvested under non-denaturing conditions by removing media and rinsing cells once with ice-cold PBS. • 3. PBS was removed, 0.5 mL ice-cold 1× Cell Lysis Buffer plus 1 mM phenylmethylsulfonylfluoride (PMSF) was added to each plate (10 cm in diameter) and the plate incubated on ice for 5 min. • 4. The cells were scraped off of the plate, transferred to an appropriate tube, and kept on ice. • 5. The lysates were sonicated on ice. • 6. Microcentrifugation was performed for 10 min at 4° C. and the supernatant transferred to a new tube. The supernatant was the cell lysate and was stored at −80° C. in single-use aliquots.
(iii) Test Procedure • 1. After the microwell strips reached rt, the required number of microwells were broken off. The microwells were placed in the strip holder. Unused microwells were resealed and stored at 4° C. immediately. • 2. 100 μL of Sample Diluent (supplied in each PathScan® Sandwich ELISA Kit, blue color) was added to a micro centrifuge tube. 100 μL of cell lysate was transferred into the tube and vortexed for a few seconds. […] Individual data sheets for each kit provided information regarding an appropriate dilution factor for lysates and kit assay results. However, dilution factors were titrated when specific cell lysates are used. • 3. 100 μL of each diluted cell lysate were added to the appropriate well. It was then sealed with tape and pressed firmly onto top of microwells. The plate was incubated for 2 h at 37° C. Alternatively, the plate was incubated overnight at 4° C., which gave the best detection of target protein. • 4. The tape was gently removed and the wells washed: • a. The plate contents were discarded into a receptacle. • b. Each well was washed 4 times with 1× Wash Buffer, 200 μL. • c. For each wash, plates were struck on fresh towels hard enough to remove the residual solution in each well, but wells were not allowed to completely dry at any time. • d. The underside of all wells was cleaned with a lint-free tissue. • 5. 100 μL of Detection Antibody (green color) was added to each well, sealed with tape and the plate incubated for 1 h at 37° C. • 6. The wash procedure was repeated as in Step 4. • 7. 100 μL of HRP-linked secondary antibody (red color) was added to each well, sealed with tape and the plate incubated plate for 30 min at 37° C. • 8. The wash procedure was repeated as in Step 4. • 9. 100 μL of TMB Substrate was added to each well, sealed with tape and the plate incubated for 10 min at 37° C. or 30 min at 25° C. • 10. 100 μL of STOP Solution was added to each well and shaken gently for a few seconds. Initial color of positive reaction was blue, which changed to yellow upon addition of STOP Solution. • 11. The results were read. • a. Visual Determination—read within 30 min after adding STOP Solution. • b. Spectrophotometric Determination—the underside of wells were wiped with a lint-free tissue and absorbance read at 450 nm within 30 min after adding STOP Solution.

[3] = target: JAK2 (Homo sapiens, UniProt O60674); experiment: JAK2 biochemical potency; conditions: read-out: JAK2 HTRF IC50
Chain of JAK2 (O60674 whole entry, species assumed): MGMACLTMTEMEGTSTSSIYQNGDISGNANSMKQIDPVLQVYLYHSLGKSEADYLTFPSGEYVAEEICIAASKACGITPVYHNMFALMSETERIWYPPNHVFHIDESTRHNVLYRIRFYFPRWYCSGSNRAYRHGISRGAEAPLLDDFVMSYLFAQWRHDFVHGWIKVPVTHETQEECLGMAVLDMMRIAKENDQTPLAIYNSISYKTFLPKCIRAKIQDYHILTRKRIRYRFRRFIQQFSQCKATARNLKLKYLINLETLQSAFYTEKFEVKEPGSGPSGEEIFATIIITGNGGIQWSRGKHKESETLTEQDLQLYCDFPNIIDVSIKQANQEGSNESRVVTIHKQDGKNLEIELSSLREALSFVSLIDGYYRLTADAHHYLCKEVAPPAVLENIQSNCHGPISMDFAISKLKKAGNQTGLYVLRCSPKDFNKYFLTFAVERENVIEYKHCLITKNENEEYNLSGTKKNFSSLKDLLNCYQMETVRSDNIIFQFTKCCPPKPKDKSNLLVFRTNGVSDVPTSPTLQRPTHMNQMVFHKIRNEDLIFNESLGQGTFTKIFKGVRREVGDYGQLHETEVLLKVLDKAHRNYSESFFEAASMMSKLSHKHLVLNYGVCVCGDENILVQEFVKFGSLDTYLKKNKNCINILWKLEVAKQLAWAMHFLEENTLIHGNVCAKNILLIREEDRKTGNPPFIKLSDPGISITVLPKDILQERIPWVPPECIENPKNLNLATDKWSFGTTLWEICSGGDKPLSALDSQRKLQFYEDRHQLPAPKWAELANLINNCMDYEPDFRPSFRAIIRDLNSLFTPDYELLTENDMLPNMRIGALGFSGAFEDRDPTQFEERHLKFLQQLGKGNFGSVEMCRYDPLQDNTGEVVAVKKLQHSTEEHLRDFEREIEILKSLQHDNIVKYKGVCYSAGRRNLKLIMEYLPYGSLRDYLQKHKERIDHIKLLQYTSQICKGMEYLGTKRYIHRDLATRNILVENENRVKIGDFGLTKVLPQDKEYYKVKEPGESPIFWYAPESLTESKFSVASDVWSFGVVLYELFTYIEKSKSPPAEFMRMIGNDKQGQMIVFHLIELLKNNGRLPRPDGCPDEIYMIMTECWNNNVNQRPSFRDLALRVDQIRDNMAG

T1 sequence (Q05397 422-680 limits assumed): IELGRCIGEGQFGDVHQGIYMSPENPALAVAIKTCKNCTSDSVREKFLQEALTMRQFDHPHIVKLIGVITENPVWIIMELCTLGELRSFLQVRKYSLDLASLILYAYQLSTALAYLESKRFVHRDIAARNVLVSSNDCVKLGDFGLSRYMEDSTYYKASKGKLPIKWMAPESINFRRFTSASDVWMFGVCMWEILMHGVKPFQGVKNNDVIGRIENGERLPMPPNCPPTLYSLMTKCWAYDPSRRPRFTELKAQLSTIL

Row | Compound | IC50 [1] [nM] | EC50 [2] [µM] | IC50 [3] [nM]
1 | COc1ccccc1S(=O)(=O)n1ncc2cnc(Nc3ccc(N4CCNCC4)cc3)nc21 [Example 335] |  | > 1 | 
2 | FC(F)Oc1ccccc1Cn1ncc2cnc(Nc3ccc4ncsc4c3)cc21 [Example 82] |  | > 1 | 
3 | O=S(=O)(c1cccc2nsnc12)n1ccc2cnc(Nc3ccc(N4CCNCC4)cc3)nc21 [Example 253] | < 20 | > 1 | < 20
4 | CC(=O)Nc1cccc(Nc2cc3c(cn2)cnn3Cc2ccccc2OC(F)F)c1 [Example 64] |  | > 1 | 
5 | COc1cc(N2CCNCC2)ccc1Nc1cc2c(ccn2S(=O)(=O)c2cccc3cccnc23)cn1 [Example 330, N-(2-Methoxy-4-(piperazin-1-yl)phenyl)-1-(quinolin-8-ylsulfonyl)-1H-pyrrolo[3,2-c]pyridin-6-amine] | < 20 |  | > 1000
6 | FC(F)Oc1ccccc1Cn1ccc2cnc(Nc3ccc4ncsc4c3)nc21 [Example 36] |  | > 1 | < 20

More lines, now with the values ahead:

Row | IC50 [1] [nM] | EC50 [2] [µM] | IC50 [3] [nM] | Compound
7 | < 20 | > 1 |  | CN(c1ncccc1Cn1ccc2cnc(Nc3ccc(N4CCCC4CO)cc3)nc21)S(C)(=O)=O (centres unmarked) [Example 536]
8 | < 20 |  |  | O=C1CCc2cc(Nc3ncc4ccn(Cc5cccnc5N5CCCS5(=O)=O)c4n3)ccc2N1 [Example 216]
9 | < 20 |  |  | Cc1cc(Nc2ncc3cnn(S(=O)(=O)c4cccc5cccnc45)c3n2)ccc1N1CCNCC1 [Example 332]
10 |  | > 1 | < 20 | CN(c1ncccc1Cn1ccc2cnc(Nc3ccc(NCCO)cc3)nc21)S(C)(=O)=O [Example 201]
11 | < 20 | > 1 |  | CN(c1ncccc1Cn1ncc2cnc(Nc3ccc4[nH]c(=O)[nH]c4c3)cc21)S(C)(=O)=O [Example 142]
12 | < 20 | > 1 |  | O=C1CCc2cc(Nc3ncc4ccn(S(=O)(=O)c5cccc6cccnc56)c4n3)ccc2N1 [Example 169]
13 |  | > 1 | < 20 | O=C1CCc2cc(Nc3ncc4cnn(Cc5ccccc5OC(F)F)c4n3)ccc2N1 [Example 21]
14 | < 20 | > 1 |  | Cn1cc(Nc2ncc3ccn(S(=O)(=O)c4cccc5cccnc45)c3n2)cn1 [Example 318]
15 |  | > 1 | < 20 | CN(c1ncccc1Cn1ncc2cnc(Nc3ccc4c(c3)CCC(=O)N4)nc21)S(C)(=O)=O [Example 202]
